Laboratory results published in PMC10979003, “Development and crystal structures of a potent second-generation dual degrader of BCL-2 and BCL-xL” (Nature Communications, 2024).

Assays:
BCL-xL R103A/D107A = target: T1, BCL-xL R103A/D107A (Homo sapiens, UniProt Q07817, D107A/R103A); test: AlphaScreen binary binding, BCL-xL R103A/D107A; conditions: mean ± s.d., n=3
T1 construct: BCL-xL (aa 2-212) and BCL-2 (aa 1-207) transformed cells were grown in LB broth; SMT3 (N); made in house; host or cells: E. coli BL21 (DE3) codon plus
T1 sequence (Q07817 2-212 R103A/D107A): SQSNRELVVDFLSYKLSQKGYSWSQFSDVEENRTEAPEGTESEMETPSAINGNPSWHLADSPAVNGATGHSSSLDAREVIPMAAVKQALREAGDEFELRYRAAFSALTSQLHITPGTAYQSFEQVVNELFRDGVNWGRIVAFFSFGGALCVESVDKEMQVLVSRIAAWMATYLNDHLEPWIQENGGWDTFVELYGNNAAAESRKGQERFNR
Protocol: (§1) To test the binary/ternary binding affinities of compounds to BCL-2/BCL-xL, AlphaScreen displacement binding assay was performed to test the capabilities of testing compounds to displace a Biotin-tagged Bim (Biotin-[…]) or Bad (Biotin-[…]) from BCL-2 or BCL-xL for BCL-2 and BCL-xL binding affinities, respectively. All reagents were diluted in assay buffer of 25 mM HEPES, pH 7.5, 150 mM NaCl, 0.1% BSA, and 0.005% tween 20 prior incubation. To a 96-well PCR plate (VWR, Cat. No. 82006-636) was added 10 μL Biotin-tagged Bim (15 nM for WT or 50 nM for mutants) or Bad (15 nM for WT or 50 nM for mutants), 10 μL series diluted compounds solution (2 or 3 or 4× dilution), and 10 μL self-made 6×His tagged BCL-2 WT or mutants (25 nM WT or 50 nM mutants) or 10 μL self-made BCL-xL WT and mutants (10 nM WT or 50 nM mutants). […] The luminescence signal was detected on a Biotek’s Synergy Neo2 multimode plate reader installed with an AphaScreen filter cube. The Ki values of each compounds were calculated by fitting data into the “Binding-competitive, One site-Fit Ki” function in GraphPad Prism (9.2.0) based on concentrations of Biotin–peptide used and experimentally determined Kd values of each 6×His protein &&&and Biotin–Peptide pair.

WT BCL-xL = target: T2, WT BCL-xL (Homo sapiens, UniProt Q07817); test: AlphaScreen displacement binary binding assay, WT BCL-xL; conditions: for Kd: Supplementary Fig. 11
T2 construct: BCL-xL (aa 2-212) and BCL-2 (aa 1-207) transformed cells were grown in LB broth; SMT3 (N); made in house; host or cells: E. coli BL21 (DE3) codon plus
T2 sequence (Q07817 2-212): as the sequence (Q07817 2-212 R103A/D107A) above, with A102R, A106D counted along it
Protocol: To test the binary/ternary binding affinities of compounds to BCL-2/BCL-xL, AlphaScreen displacement binding assay was performed to test the capabilities of testing compounds to displace a Biotin-tagged Bim (Biotin-[…]) or Bad (Biotin-[…]) from BCL-2 or BCL-xL for BCL-2 and BCL-xL binding affinities, respectively. All reagents were diluted in assay buffer of 25 mM HEPES, pH 7.5, 150 mM NaCl, 0.1% BSA, and 0.005% tween 20 prior incubation. To a 96-well PCR plate (VWR, Cat. No. 82006-636) was added 10 μL Biotin-tagged Bim (15 nM for WT or 50 nM for mutants) or Bad (15 nM for WT or 50 nM for mutants), 10 μL series diluted compounds solution (2 or 3 or 4× dilution), and 10 μL self-made 6×His tagged BCL-2 WT or mutants (25 nM WT or 50 nM mutants) or 10 μL self-made BCL-xL WT and mutants (10 nM WT or 50 nM mutants). After incubating at room temperature for 30 min, 5 µL of 160 μg/mL of anti-6×His acceptor beads (PerkinElmer, Cat. No. AL128M) was added and the mixture was incubated at room temperature for 15 min. 5 µL of 160 μg/mL of streptavidin donor beads (PerkinElmer, 6760002) was then added under subdued light and the mixture was incubated at dark for 30 min before being transferred to two adjacent wells (17 µL each) of 384-well white OptiPlate (PerkinElmer, Cat. No. 6008280). The luminescence signal was detected on a Biotek’s Synergy Neo2 multimode plate reader installed with an AphaScreen filter cube. The Ki values of each compounds were calculated by fitting data into the “Binding-competitive, One site-Fit Ki” function in GraphPad Prism (9.2.0) based on concentrations of Biotin–peptide used and experimentally determined Kd values of each 6×His protein &&&and Biotin–Peptide pair.

HiBiT-BCL-xL/HaloTag-VHL = target: T3, HiBiT-BCL-xL/HaloTag-VHL (Homo sapiens, UniProt P40337+Q07817); test: NanoBRET ternary complex formation assay in 293T cells, HiBiT-BCL-xL and HaloTag-VHL; format: cell-based; conditions: 4 h, MG132 pretreatment
T3 construct: full-length BCL-xL and BCL-2 were expressed in cells for the nanoBRET assay; host or cells: 293T
T3 sequence (Q07817 whole entry): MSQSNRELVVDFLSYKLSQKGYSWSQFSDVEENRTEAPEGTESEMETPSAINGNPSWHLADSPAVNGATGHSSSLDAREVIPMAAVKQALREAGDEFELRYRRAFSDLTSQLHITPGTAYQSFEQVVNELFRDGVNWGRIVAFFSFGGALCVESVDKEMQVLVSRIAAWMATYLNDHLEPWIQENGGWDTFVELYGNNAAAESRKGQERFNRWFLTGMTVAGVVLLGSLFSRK
T3 sequence (Q15369 whole entry, further chain): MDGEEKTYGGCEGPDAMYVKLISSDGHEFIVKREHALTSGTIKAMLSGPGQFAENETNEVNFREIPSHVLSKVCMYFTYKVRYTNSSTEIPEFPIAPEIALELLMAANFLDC
T3 sequence (Q15370 whole entry, further chain): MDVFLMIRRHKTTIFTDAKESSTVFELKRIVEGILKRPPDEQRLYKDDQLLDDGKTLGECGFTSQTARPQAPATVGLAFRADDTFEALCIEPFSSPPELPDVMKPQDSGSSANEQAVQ
T3 sequence (P40337 whole entry): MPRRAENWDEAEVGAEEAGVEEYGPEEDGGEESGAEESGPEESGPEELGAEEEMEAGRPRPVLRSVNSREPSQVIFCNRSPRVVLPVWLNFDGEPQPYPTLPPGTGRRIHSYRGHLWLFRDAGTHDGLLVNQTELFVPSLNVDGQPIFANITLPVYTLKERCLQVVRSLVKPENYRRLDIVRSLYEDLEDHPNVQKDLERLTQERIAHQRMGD
Protocol: Plasmids HaloTag-VHL (Cat. No. CS1679C155) and CMV HiBiT (Cat. No. CS1956B03) were purchased from Promega. HiBiT-BCL-xL and HiBiT-BCL-2 were constructed previously. 293T cells (8 × 10^5 cells/well in a 6-well plate) were transfected with Lipofectamine (Life Technologies) and 1 μg HaloTag-VHL, 20 ng HiBiT-BCL-xL and 20 ng LgBiT or 1 μg HaloTag-VHL, 20 ng HiBiT-BCL-2 and 20 ng LgBiT. After 48 h, 2 × 10^4 transfected cells were seeded into each well of white 96-well tissue culture plates in Gibco™ Opti-MEM™ I Reduced Serum Medium, No Phenol Red (Cat. No. 11-058-021, Fisher) containing 4% FBS with or without HaloTag NanoBRET 618 Ligand (Cat. No. PRN1662, Promega) and incubated overnight at 37 °C, 5% CO2. […] After treatment, NanoBRET Nano-Glo Substrate (cat. no. N1662, Promega) was added into the medium, and the contents were mixed by shaking the plate for 30 s before measuring donor and acceptor signals on Biotek plate reader. Dual-filtered luminescence was collected with a 450/50 nm bandpass filter (donor, NanoBiT-BCL-XL protein or NanoBiT-BCL-2 protein) and a 610-nm longpass filter (acceptor, HaloTag NanoBRET ligand) using an integration time of 0.5 s. mBRET ratios were calculated following the NanoBRET™ Nano-Glo® Detection System (Cat. No. N1662, Promega).

BCL-2 E114A Q118A = target: T4, BCL-2 E114A Q118A (Homo sapiens, UniProt P10415, E114A/Q118A); test: AlphaScreen binary binding, BCL-2 E114A Q118A; conditions: mean ± s.d., n=3
T4 construct: BCL-xL (aa 2-212) and BCL-2 (aa 1-207) transformed cells were grown in LB broth; made in house; host or cells: E. coli BL21 (DE3) codon plus
T4 sequence (P10415 1-207 E114A/Q118A): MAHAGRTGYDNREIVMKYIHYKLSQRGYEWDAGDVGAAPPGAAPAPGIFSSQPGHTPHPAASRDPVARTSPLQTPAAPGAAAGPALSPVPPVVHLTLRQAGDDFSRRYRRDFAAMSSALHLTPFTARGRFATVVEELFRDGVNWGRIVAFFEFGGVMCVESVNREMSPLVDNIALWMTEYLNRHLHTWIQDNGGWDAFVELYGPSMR
Protocol: as §1

human platelets = test: Potency against human platelets in vitro; format: cell-based
[1] = test system: H146 small cell lung cancer cells; test: Cytotoxicity in H146 SCLC cells in vitro; format: cell-based; conditions: Figure R4
[2] = target: T5, VCB/PROTAC/BCL-2 ternary complex (Homo sapiens, UniProt P10415+P40337); test: AlphaLISA ternary complex assay VCB/PROTAC/BCL-2; format: binding; conditions: cell-free AlphaLISA
T5 construct: BCL-xL (aa 2-212) and BCL-2 (aa 1-207) transformed cells were grown in LB broth; GST (on the VCB complex); made in house; host or cells: E. coli BL21 (DE3) codon plus (stated for the BCL-2 construct)
T5 sequence (Q15370 whole entry, the tested form may be a part): as the sequence (Q15370 whole entry, further chain) above
T5 sequence (Q15369 17-112, further chain): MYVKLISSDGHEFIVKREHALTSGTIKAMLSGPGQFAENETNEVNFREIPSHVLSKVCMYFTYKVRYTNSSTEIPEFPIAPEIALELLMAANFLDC
T5 sequence (P40337 54-213): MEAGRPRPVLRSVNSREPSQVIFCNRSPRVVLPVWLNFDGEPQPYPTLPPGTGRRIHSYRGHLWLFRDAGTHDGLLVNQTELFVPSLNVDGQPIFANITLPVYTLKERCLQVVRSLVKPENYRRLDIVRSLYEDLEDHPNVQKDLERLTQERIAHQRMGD
T5 sequence (P10415 1-207): as the sequence (P10415 1-207 E114A/Q118A) above, with A114E, A118Q counted along it
Protocol: Assays were performed at room temperature. All reagents were diluted in assay buffer of 25 mM HEPES, pH 7.5, 150 mM NaCl, 0.1% BSA, and 0.005% tween 20. To a 96-well PCR plate (VWR, Cat. No. 82006-636) were added 10 μL self-made 6×His tagged BCL-xL (100 nM) or BCL-2 (150 nM), 10 μL series diluted compounds solution (4× dilution) and 10 μL of self-made GST-VCB (100 nM). After incubating at room temperature for 15 min, 5 µL of alpha glutathione-donor beads (160 μg/mL, PerkinElmer, Cat. No. 6765300) and 5 µL of anti-6×His acceptor beads (160 μg/mL, PerkinElmer, Cat. No. AL128M) to each well and incubated for additional 45 min in the dark before being transferred to two adjacent wells (17 µL each) of 384-well white OptiPlate (PerkinElmer, Cat. No. 6008280). The luminescence signal was detected on a Biotek’s Synergy Neo2 multimode plate reader installed with an AphaScreen filter cube. Intensity values were plotted in Graphpad Prism (9.2.0) with PROTAC concentration values represented on a log10 scale.

BCL-2 R110A E114K = target: T6, BCL-2 R110A E114K (Homo sapiens, UniProt P10415, E114K/R110A); test: AlphaScreen binary binding, BCL-2 R110A E114K; conditions: mean ± s.d., n=3
T6 construct: BCL-xL (aa 2-212) and BCL-2 (aa 1-207) transformed cells were grown in LB broth; made in house; host or cells: E. coli BL21 (DE3) codon plus
T6 sequence (P10415 1-207 R110A/E114K): as the sequence (P10415 1-207 E114A/Q118A) above, with R110A, A114K, A118Q counted along it
Protocol: as §1

Compound	Ki (BCL-xL R103A/D107A)	Kd (WT BCL-xL)	Ki (WT BCL-xL; mean ± s.d., n=3)	Cellular ternary complex formation with BCL-xL (comparison) (HiBiT-BCL-xL/HaloTag-VHL)	Ki (BCL-2 E114A Q118A)	Increase in therapeutic index compared to ABT263 (human platelets)	Potency against H146 cells (comparison with ABT263, DT2216, 753b) [1]	Ternary complex formation with BCL-2 (comparison with 753b) [2]	Ki (BCL-2 R110A E114K)
Cc1ncsc1-c1ccc(C(C)NC(=O)C2CC(O)CN2C(=O)C(NC(=O)CCCCCCC(=O)N2CCN(CC3(C)CCC(c4ccc(Cl)cc4)=C(CN4CCN(c5ccc(C(=O)NS(=O)(=O)c6ccc(NC(CCN7CCOCC7)CSc7ccccc7)c(S(=O)(=O)C(F)(F)F)c6)cc5)CC4)C3)CC2)C(C)(C)C)cc1 (stereo not shown) [753b]	36.7 ± 3 nM	~28 nM	21.9 ± 7.3 nM	–	–	–	–	–	–
Cc1ncsc1-c1ccc([C@H](C)NC(=O)[C@@H]2C[C@@H](O)CN2C(=O)[C@@H](NC(=O)CN2CCN(CC(=O)N3CCN(C[C@]4(C)CCC(c5ccc(Cl)cc5)=C(CN5CCN(c6ccc(C(=O)NS(=O)(=O)c7ccc(N[C@H](CCN8C[C@@H]9C[C@H]8CO9)CSc8ccccc8)c(S(=O)(=O)C(F)(F)F)c7)cc6)CC5)C4)CC3)CC2)C(C)(C)C)cc1 [WH244]	–	~6.14 nM	–	significantly lower compound concentration than 753b	9.6 ± 0.7 nM	more than 100 fold	most potent	tighter complex	7 ± 0.9 nM
